Experimental data taken from paper PMC11350675, “Identifying Cell-Penetrating Peptides for Effectively Delivering Antimicrobial Molecules into Streptococcus suis” (Antibiotics, 2024).
Values after ≈ are worked out from the molar mass of the structure shown. Read-outs that look alike come from different tables or passages of the source. Non-standard residues stand in square brackets, D forms with d. Residues, ends and D or L forms follow the SMILES beside them. Ahx = NCCCCCC(=O)O; βAla = NCCC(=O)O

Tests used:
[1] = test system: S. suis serotype 2 strain SC070731 cells; assay: Cellular uptake of FITC-labeled CPPs by flow cytometry; format: cell-based, Streptococcus suis; conditions: 10 µM FITC-labeled CPP or FITC molecule, 1 h, 37 °C, PBS; flow cytometry, 50,000 events, 488 nm laser
Method: S. suis serotype 2 strain SC070731 was streaked onto THA plates and incubated at 37 °C with 5% CO2 for 12 h. A bacterial colony was picked and inoculated overnight in 2 mL of THB at 37 °C. The overnight culture was then diluted 100-fold in fresh THB and grown to an OD600nm of 0.6 (approximately 3 × 10^8 CFU/mL). The obtained culture was washed twice with PBS and resuspended in PBS. Further, 900 µL of the bacterial solution was transferred into a 2 mL tube. Immediately, 100 µL of a 10× FITC-labeled CPPs working solution was added to a final concentration of 10 µM. Controls were prepared using an equivalent volume of water or a 10× FITC molecule solution. The reaction tubes were incubated for one hour at 37 °C and 10 rpm rotation in the dark. […] The fluorescence emitted by the 640 nm laser was used to analyze the cell membrane stained with Alexa Fluor 633-WGA. In contrast, the fluorescence emitted by the 488 nm laser was used to analyze the distribution of FITC-labeled CPPs in bacterial cells. […]
As mentioned, the bacterial cells were treated with FITC-labeled CPPs and fixed with 4% paraformaldehyde. […] Bacterial cells in suspension were analyzed at a 200–300 events/s flow rate, and 50,000 events were recorded for analysis. […] The mean fluorescence intensity of FITC was analyzed using FlowJo^TM v10 software (BD Biosciences). […]

[2] = test system: S. suis serotype 2 strain SC070731; format: cell-based, Streptococcus suis
Method: The broth microdilution method was employed to determine the MIC values, following a previous study and a recently published protocol with a few modifications. In brief, an overnight S. suis serotype 2 strain SC070731 culture was diluted 100-fold in fresh THB and grown to an OD600nm of 0.6. Subsequently, the bacterial suspension was further diluted 2000-fold in fresh Mueller–Hinton broth (MHB) to a final concentration of approximately 1 × 10^5 CFU/mL. Then, 180 µL of the bacterial solution was transferred into a 96-well plate. Immediately, 20 µL of a 10× peptides, PNAs, or CPP-PNA conjugates working solution was added. As a negative control, an equivalent volume of water was added instead. The plate was then incubated at 37 °C with 5% CO2 for 18 h, and the growth was periodically monitored by measuring the OD595nm every hour using a BioTek ELx800 plate reader. The MIC value was determined as the lowest concentration inhibiting visible growth in the wells (OD595nm < 0.1).

[3] = S. suis serotype 2 strain SC070731, broth microdilution in MHB, approx. 1 × 10^5 CFU/mL, 37 °C, 5% CO2, 18 h, lowest concentration inhibiting visible growth (OD595nm < 0.1)

Row | Compound | MIC [2, 3] | also measured
1 | O=C1OC2(c3ccc(O)cc3Oc3cc(O)ccc32)c2ccc(N=C=S)cc21 [FITC molecule] | – | cells clustered in quadrant 4 (FITC-positive), share of total cells [1]: 64.80%
2 | Free PNA: gyrA-specific antisense peptide nucleic acid, ttgcattatatg, without carrier peptide (TTGCATTATATG; all peptide nucleic acid (PNA); Unconjugated PNA, no carrier peptide) | >32 µM | –
3 | N=C(N)NCCC[C@H](NC(=O)CCCCCNC(=O)[C@H](CCCNC(=N)N)NC(=O)[C@H](CCCNC(=N)N)NC(=O)CCCCCNC(=O)[C@H](CCCNC(=N)N)NC(=O)[C@H](CCCNC(=N)N)NC(=O)CCCCCNC(=O)[C@H](CCCNC(=N)N)NC(=O)[C@H](CCCNC(=N)N)NC(=O)CCCCCNC(=O)[C@@H](N)CCCNC(=N)N)C(=O)NCCCCCC(=O)NCCC(N)=O [(RXR)4XB] (H-R[Ahx]RR[Ahx]RR[Ahx]RR[Ahx]R[Ahx][βAla]-NH2) | – | MIC ([2]; 18 h): 4 µM (≈ 7.61 µg/mL)
4 | N=C(N)NCCC[C@H](NC(=O)CN)C(=O)N[C@@H](CCCCN)C(=O)N[C@@H](CCCCN)C(=O)N[C@@H](CCCNC(=N)N)C(=O)N[C@@H](CCCNC(=N)N)C(=O)N[C@@H](CCC(N)=O)C(=O)N[C@@H](CCCNC(=N)N)C(=O)N[C@@H](CCCNC(=N)N)C(=O)N[C@@H](CCCNC(=N)N)C(=O)N[C@@H](Cc1ccc(O)cc1)C(=O)N[C@@H](CCCCN)C(N)=O [HIV-1 TAT] | >128 µM | –
